Consider three compounds from ChEMBL document CHEMBL1149731, “Aflavarin and -Aflatrem: New Anti-Insectan Metabolites from the Sclerotia of Aspergillus flavus” (1992).

The test system of one test is Helicoverpa zea. Description: Insecticidal activity against Helicoverpa zea assessed as reduction in growth rate. It is filed as functional, organism-based.
The test system of test [1] is Carpophilus. Kind of test: Antiinsectan activity against Carpophilus hemipterus larvae assessed as feeding reduction at 100 ppm administered through test diet relative to control. It counts as functional.
The subject of test [2] is Carpophilus. Kind of test: Antiinsectan activity against adult Carpophilus hemipterus assessed as feeding reduction at 100 ppm administered through test diet relative to control. It counts as functional.
For another test, the system named is Staphylococcus aureus. Description: Antibacterial activity against Staphylococcus aureus at 100 ug/disk by standard disk assay. It is filed as functional, organism-based.
Test [3] concerns Carpophilus. Kind of test: Insecticidal activity against Carpophilus hemipterus. It counts as functional, organism-based.
In the next test the test system is Candida albicans. Kind of test: Antifungal activity against Candida albicans at 100 ug/disk by standard disk assay. It is filed as functional, organism-based.
A further test deals with MCF7. Kind of test: Cytotoxicity against human MCF7 cells. It is filed as functional. To be noted: read-out: ED50 (the source's name).
For the next test, the system named is A549. Kind of test: Cytotoxicity against human A549 cells. It counts as functional. To be noted: read-out: ED50 (the source's name).
In the next test the test system is Bacillus subtilis. Kind of test: Antibacterial activity against Bacillus subtilis at 100 ug/disk by standard disk assay. It counts as functional, organism-based.
In the next test the test system is HT-29. Description: Cytotoxicity against human HT-29 cells. It counts as functional. As to conditions: read-out: ED50 (the source's name).

Values after ≈ are worked out from the molar mass of the structure shown. Active and inactive are the calls of the source. No cut-off for these calls is given here.

In the case of `C=CC(C)(C)c1ccc2[nH]c3c(c2c1)C[C@@H]1CC[C@@]2(O)C4=CC(=O)[C@@H]5O[C@]4(CC[C@]2(C)[C@@]31C)OC5(C)C`, the result in the test on Helicoverpa zea was Active.

Consider `COc1cc(C)c2c(OC)cc(=O)oc2c1-c1c(O)cc(C)c2c(OC)cc(=O)oc12`, for which the result in the test on Carpophilus [1] and with Carpophilus [2] was inactive.

For the compound `COc1cc(CO)c2c(OC)c(-c3c(OC)cc(C)c4c(OC)cc(=O)oc34)c(=O)oc2c1` [AFLAVARIN], the values for the Activity with Carpophilus [1] and in the test on Carpophilus [2] were 53% and 66%, respectively. For the same compound, the outcome with Staphylococcus aureus, with Candida albicans and with Bacillus subtilis was inactive. In the test with Carpophilus [3], the result was Active. Moreover, the EC50 amounted to 55 µg/mL (≈ 121 µM) in the test with MCF7, 7.5 µg/mL (≈ 16.5 µM) with A549 and 5.8 µg/mL (≈ 12.8 µM) in the test on HT-29.
